Here are results for nine compounds from US7112579B2, “26,27-Homologated-20-EPI-2-alkyl-19-nor-vitamin D compounds” (Wisconsin Alumni Research Foundation, priority 1997, dated 2006).

Assay [1] has as its system human promyelocyte HL-60 cells. Put plainly: Differentiation of HL-60 promyelocytes into monocytes (NBT reduction). The settings on record: for HL-60 differentiation, more active than corresponding 2β-isomer: 12 vs 13, 18 vs 19; for induction of differentiation of HL-60 cells to monocytes, in words: FIGS. 2, 4, 6, comparison in words. The assay is classed as cell-based. From the text: In the next assay, the cellular activity of the synthesized compounds was established by studying their ability to induce differentiation of human promyelocyte HL-60 cells into monocytes.

Assay [2] deals with serum calcium (bone calcium mobilization). Put plainly: Serum calcium (bone calcium mobilization), chronic doses 7 days i.p., vitamin D-deficient rats. The assay is classed as in vivo, rat. The settings on record: for bone calcium mobilization (serum calcium) activity, in words: chronic 7 days, 130 and/or 260 pmol/day; for calcemic activity (intestinal calcium transport and bone calcium mobilization), in words: chronic doses, rats. As for the experimental part:
(§1) Male weanling rats were obtained from Sprague Dawley Co. (Indianapolis, Ind.) and fed a 0.47% calcium, 0.3% phosphorus vitamin D-deficient diet for 1 week and then given the same diet containing 0.02% calcium, 0.3% phosphorus for 2 weeks. During the last week they were given the indicated dose of compound by intraperitoneal injection in 0.1 ml 95% propylene glycol and 5% ethanol each day for 7 days. The control animals received only the 0.1 ml of 95% propylene glycol, 5% ethanol. Twenty-four hours after the last dose, the rats were sacrificed and intestinal calcium transport was determined by everted sac technique as previously described and serum calcium determined by atomic absorption spectrometry on a model 3110 Perkin Elmer instrument (Norwalk, Conn.). There were 5 rats per group and the values represent mean±SEM.
as §1, with “With respect to the data in Tables 3 and 4, male” for “Male”, “atormic” for “atomic”

Assay [3] relates to intestinal calcium transport. In words: Intestinal calcium transport (everted sac), chronic doses 7 days i.p., vitamin D-deficient rats. The class given is in vivo, rat. The settings on record: for intestinal calcium transport activity, in words: chronic 7 days, 130 and/or 260 pmol/day. As to the method: as §1
as §1, with “With respect to the data in Tables 3 and 4, male” for “Male”, “atormic” for “atomic”

In assay [4] the target is T1, porcine intestinal vitamin D receptor (Sus scrofa, UniProt A3RGC1).
T1 construct: from tissue; host or cells: porcine intestine
T1 sequence (A3RGC1 1-427): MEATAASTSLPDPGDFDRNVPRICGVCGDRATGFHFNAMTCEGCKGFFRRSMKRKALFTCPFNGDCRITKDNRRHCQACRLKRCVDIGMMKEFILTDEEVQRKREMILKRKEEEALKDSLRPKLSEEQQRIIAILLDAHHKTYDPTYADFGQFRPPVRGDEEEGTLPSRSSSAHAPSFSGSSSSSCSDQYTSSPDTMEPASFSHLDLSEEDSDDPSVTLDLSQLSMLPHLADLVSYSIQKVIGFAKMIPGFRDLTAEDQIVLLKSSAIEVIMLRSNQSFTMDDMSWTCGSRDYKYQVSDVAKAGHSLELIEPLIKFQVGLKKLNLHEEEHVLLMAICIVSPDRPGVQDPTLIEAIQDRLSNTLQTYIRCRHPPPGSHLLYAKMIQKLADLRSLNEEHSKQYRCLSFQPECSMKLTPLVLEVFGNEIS
In words: Competitive binding to the porcine intestinal vitamin D receptor ([3H]-1,25-(OH)2-D3 displacement). Set-up: species or system pig. The settings on record: for ability to bind the porcine intestinal vitamin D receptor, in words: FIGS. 1, 3 and 5, comparison in words.

In assay [5] the test system is intestinal calcium transport. Put plainly: Support of intestinal calcium transport in vitamin D-deficient rats on a low-calcium diet (3 weeks), 7 daily i.p. doses. The class given is in vivo, rat. The settings on record: Table 7 panel 1.
For assay [6], the system named is bone calcium mobilization (serum Ca). In words: Bone calcium mobilization (serum Ca) in vitamin D-deficient rats on a low-calcium diet (3 weeks), 7 daily i.p. doses. The class given is in vivo, rat. The settings on record: Table 7 panel 1.
The mark [7] stands for this setting: Table 4, 130 pmol/day/7 days i.p., mean±SEM.
Setting [8] is: Table 4, 260 pmol/day/7 days i.p., mean±SEM.
[9] abbreviates: Table 4, 130 pmol/day/7 days i.p., mean±SEM, listed as 2β-Methyl-19-nor-1,25-(OH)2D3.
[10] abbreviates: Table 4, 260 pmol/day/7 days i.p., mean±SEM, listed as 2β-Methyl-19-nor-1,25-(OH)2D3.
Where [11] appears, read: listed as 2β-methyl-19-nor-1,25-(OH)2D3.
Where [12] appears, read: Table 3, 130 pmol/day/7 days i.p., mean±SEM.
Setting [13] is: Table 3, 260 pmol/day/7 days i.p., mean±SEM.
Setting [14] is: Table 5, 130 pmol/day/7 days i.p.
Setting [15] is: Table 5, 260 pmol/day/7 days i.p.
Setting [16] is: Table 5, 130 pmol/day/7 days i.p., listed as 2β-Hydroxymethyl-19-nor-20(S)-1,25-(OH)2D3.
Setting [17] is: Table 5, 260 pmol/day/7 days i.p., listed as 2β-Hydroxymethyl-19-nor-20(S)-1,25-(OH)2D3.
Setting [18] is: Table 6, analog average ED50 / ED50 for 1α,25-(OH)2D3.

Entries after “also recorded” stand apart in the source; their conditions may differ.

With `CC1[C@H](O)CC(=C/C=C2\CCC[C@]3(C)[C@@H]([C@H](C)CCCC(C)(C)O)CC[C@@H]23)C[C@H]1O` (stereo partly drawn) [Compound 12, 2α-methyl-19-nor-1,25-(OH)2D3], in assay [1], the “HL-60 differentiation, more active than corresponding 2β-isomer” value is recorded as 100 times. Besides, the “induction of differentiation of HL-60 cells to monocytes, in words” value (from here on “induction of differentiation … in words”) in assay [1] was “extremely potent”. Moreover, the results for the “Serum Calcium” value in assay [2] (setting [7]) and in assay [2] (setting [8]) were 4.8 ± 0.2 mg/100 ml and 5.8 ± 0.5 mg/100 ml, respectively. In addition, the “bone calcium mobilization (serum calcium) activity, in words” value in assay [2] was “relatively strong bone calcium mobilization at both dose levels”. The entries for the “Intestinal Calcium Transport (S/M)” value in assay [3] (setting [7]) and in assay [3] (setting [8]) were 4.3 ± 1.0 S/M and 5.3 ± 1.3 S/M, respectively. Besides, the “intestinal calcium transport activity, in words” value in assay [3] was “some intestinal calcium transport activity”. For the same compound, in assay [4], the “ability to bind the porcine intestinal vitamin D receptor, in words” value (from here on “ability”) is listed as “about as active as 1α,25-(OH)2D3”.
Consider `CC1[C@H](O)CC(=C/C=C2\CCC[C@]3(C)[C@@H]([C@H](C)CCCC(C)(C)O)CC[C@@H]23)C[C@H]1O` (stereo partly drawn) [Compound 13, 1α,25-Dihydroxy-2β-methyl-19-nor-vitamin D3], for which the “induction of differentiation … in words” value in assay [1] is listed as “high potency in cellular differentiation”. Moreover, the “Serum Calcium” value in assay [2] (setting [9]) is reported as 4.1 ± 0.1 mg/100 ml; in assay [2] (setting [10]) it was 3.8 ± 0.2 mg/100 ml. The “bone calcium mobilization (serum calcium) activity, in words” value in assay [2] (setting [11]) is reported as “little, if any”. Further, the “calcemic activity (intestinal calcium transport and bone calcium mobilization), in words” value (from here on “calcemic activity”) in assay [2] is recorded as “lack of calcemic activity”. Also, the entries for the “Intestinal Calcium Transport (S/M)” value in assay [3] (setting [9]) and in assay [3] (setting [10]) were 4.4 ± 0.8 S/M and 3.1 ± 0.9 S/M, respectively. For the same compound, the “intestinal calcium transport activity, in words” value in assay [3] (setting [11]) was “little, if any”. For the same compound, in assay [4] (relative to 1α,25-(OH)2D3), the “receptor binding, less effective than 1α,25-(OH)2D3” value is recorded as 39 fold.
Take `CC(CCCC(C)(C)O)C1CCC2C(=CC=C3CC(O)C(C)C(O)C3)CCCC21C` (stereo not drawn) [Compound 18, 2α-methyl-19-nor-20S-1,25-(OH)2D3]: the “HL-60 differentiation, more active than corresponding 2β-isomer” value in assay [1] is given as 10 times. For the same compound, the “induction of differentiation … in words” value in assay [1] was “extremely potent”. Besides, the “Serum Calcium” value stood at 8.3 ± 0.7 mg/100 ml in assay [2] (Table 3, 130 pmol/day/7 days i.p., mean±SEM, listed as 2α-Methyl-19-nor-20(S)-1,25-(OH)2D3); 8.3±0.7 mg/100 ml in assay [2] (Table 3, 130 pmol/day/7 days i.p., mean±SEM, listed as 2α-methyl-19-nor-20S-1,25-(OH)2D3); 10.3 ± 0.11 mg/100 ml in assay [2] (Table 3, 260 pmol/day/7 days i.p., mean±SEM, listed as 2α-Methyl-19-nor-20(S)-1,25-(OH)2D3); 10.3±0.11 mg/100 ml in assay [2] (Table 3, 260 pmol/day/7 days i.p., mean±SEM, listed as 2α-methyl-19-nor-20S-1,25-(OH)2D3). The “bone calcium mobilization (serum calcium) activity, in words” value in assay [2] is “much higher than that of the native hormone”. For the same compound, the “Intestinal Calcium Transport (S/M)” value in assay [3] (setting [12]) amounted to 12.9 ± 1.9 S/M; in assay [3] (setting [13]) it was 8.4 ± 1.1 S/M. Further, in assay [3], the “intestinal calcium transport activity, in words” value was “significant change in intestinal calcium transport at both the 260 pmol and the 130 pmol dose levels”. Moreover, the “ability” value in assay [4] is recorded as “about as active as 1α,25-(OH)2D3”.
For the compound `CC1C(O)CC(=CC=C2CCC[C@]3(C)[C@@H]([C@@H](C)CCCC(C)(C)O)CC[C@@H]23)CC1O` (stereo partly drawn) [Compound 19, 20(S)-1α,25-Dihydroxy-2β-methyl-19-nor-vitamin D3], the “induction of differentiation … in words” value in assay [1] is listed as “high potency in cellular differentiation”. Further, the “Serum Calcium” value in assay [2] (setting [12]) and in assay [2] (setting [13]) was 4.4 ± 0.1 mg/100 ml in each case. Besides, in assay [2], the “bone calcium mobilization (serum calcium) activity, in words” value is “little, if any, bone mobilization activity”. Further, the “calcemic activity” value in assay [2] was “lack of calcemic activity”. Also, the entries for the “Intestinal Calcium Transport (S/M)” value in assay [3] (setting [12]) and in assay [3] (setting [13]) were 2.9 ± 0.3 S/M and 3.8 ± 0.1 S/M, respectively. In assay [3], the “intestinal calcium transport activity, in words” value was “little, if any, intestinal calcium transport activity”. Moreover, in assay [4], the “ability” value was “about as active as 1α,25-(OH)2D3”.
Turning to `C[C@H](CCCC(C)(C)O)[C@H]1CC[C@H]2/C(=C/C=C3C[C@@H](O)C(CO)[C@H](O)C3)CCC[C@]12C` (stereo partly drawn) [Compound 20, 1α,25-Dihydroxy-2α-(hydroxymethyl)-19-norvitamin D3], the “ability” value in assay [4] is “about the same binding affinity as 23”.
Turning to `CC(CCCC(C)(C)O)C1CCC2C(=CC=C3CC(O)C(CO)C(O)C3)CCCC21C` (stereo not drawn) [Compound 21, 1α,25-Dihydroxy-2β-(hydroxymethyl)-19-norvitamin D3], the “receptor binding, less effective than 2α-hydroxymethyl analog 20” value in assay [4] (relative to 20) is “ca. 8 times”.
In the case of `CC(CCCC(C)(C)O)C1CCC2C(=CC=C3CC(O)C(CO)C(O)C3)CCCC21C` [Compound 22, 2α-Hydroxymethyl-19-nor-20(S)-1,25-(OH)2D3], the “induction of differentiation … in words” value in assay [1] is reported as “high potency in cellular differentiation”. The “Serum Calcium” value worked out at 4.0 ± 0.1 mg/100 ml in assay [2] (setting [14]) and 3.9 ± 0.1 mg/100 ml in assay [2] (setting [15]). Besides, in assay [2], the “calcemic activity” value is “relatively inactive; also recorded: lack of calcemic activity”. For the same compound, the “Intestinal Calcium Transport (S/M)” value in assay [3] (setting [14]) was 5.0 ± 0.3 S/M; in assay [3] (setting [15]) it was 5.8 ± 0.4 S/M. The “ability” value in assay [4] is given as “almost equivalent to 1α,25-(OH)2D3”.
For the compound `CC(CCCC(C)(C)O)C1CCC2C(=CC=C3CC(O)C(CO)C(O)C3)CCCC21C` [Compound 23, 20(S)-1α,25-Dihydroxy-2β-(hydroxymethyl)-19-norvitamin D3], the “induction of differentiation … in words” value in assay [1] is listed as “high potency in cellular differentiation”. For the same compound, the “Serum Calcium” value in assay [2] (setting [16]) is 3.6 ± 0.1 mg/100 ml; in assay [2] (setting [17]), 3.5 ± 0.2 mg/100 ml. Further, the “calcemic activity” value in assay [2] is “relatively inactive; also recorded: lack of calcemic activity”. Further, the “Intestinal Calcium Transport (S/M)” value in assay [3] (setting [16]) came out at 3.5 ± 0.7 S/M; in assay [3] (setting [17]), 3.5 ± 0.3 S/M. For the same compound, in assay [4] (relative to 22 and 1α,25-(OH)2D3), the “receptor binding, less potent than 22 and 1α,25-(OH)2D3” value was 6–8 ×.
Consider `CCC(O)(CC)CCCC(C)C1CCC2C(=CC=C3CC(O)C(C)C(O)C3)CCCC21C` [Compound 36, 20(S)-1α,25-Dihydroxy-2α-methyl-26,27-dihomo-19-nor-vitamin D3], for which, in assay [1] (setting [18]), the “HL-60 Differentiation Activity ratio” value turned out to be 0.01. Further, the “HL-60 Differentiation ED50” value in assay [1] (Table 6, concentration inducing 50% maturation (NBT)) worked out at 0.06 nM. The “Ca Transport S/M (mean ± SEM)” value is listed as 5.8 ± 0.4^d^1 S/M in assay [5] (32 pmol daily x 7 i.p.) and 8.4 ± 0.8^d^2 S/M in assay [5] (65 pmol daily x 7 i.p.). For the same compound, the “Serum Ca (mean ± SEM)” value in assay [6] (32 pmol daily x 7 i.p.) is reported as 5.9 ± 0.2^d^1; in assay [6] (65 pmol daily x 7 i.p.), 9.3 ± 0.2^d^2. Further, the “VDR Binding ratio” value in assay [4] (setting [18]) turned out to be 3.6. The EC50 in assay [4] (Table 6, concentration for 50% displacement of radiolabeled 1α,25-(OH)2D3, read-out: VDR Binding ED50) was found to be 3.1 nM.
